Measured values as given in patent publication US12077503B2, “Substituted cyclic amides and their use as herbicides” (FMC CORPORATION, priority 2015, dated 2024).

Columns and labels:
Assay type in all cases: in vivo
Kochia (Kochia scoparia) [1] = assay: Test A preemergence; settings: Bassia scoparia, pre-emergence, 240 h, Preemergence
Procedure, shortened: (§1)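 Preemergence directed soil spray on seeded pots, or postemergence application to plants 2–10 cm, one- to two-leaf. Solvent mixture non-phytotoxic, with surfactant. Scored ~10 d later, visually, 0–100 vs untreated.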

[2] = tested on: barnyardgrass (Echinochloa crus-galli); assay: Test A preemergence; settings: Echinochloa crus-galli, pre-emergence, 240 h, Preemergence
Procedure, shortened: as §1

[3] = tested on: giant foxtail (Setaria faberii); assay: Test A preemergence; settings: Setaria faberi, pre-emergence, 240 h, Preemergence
Procedure, shortened: as §1

[4] = tested on: pigweed (Amaranthus retroflexus); assay: Test A preemergence; settings: Amaranthus retroflexus, pre-emergence, 240 h, Preemergence
[5] = tested on: ragweed (common ragweed, Ambrosia elatior); assay: Test A preemergence; settings: Ambrosia artemisiifolia, pre-emergence, 240 h, Preemergence
Procedure, shortened: as §1

[6] = tested on: ryegrass, Italian (Italian ryegrass, Lolium multiflorum); assay: Test A preemergence; settings: Lolium multiflorum, pre-emergence, 240 h, Preemergence
Procedure, shortened: as §1

[7] = tested on: Galium (catchweed bedstraw, Galium aparine); assay: Test A postemergence; settings: Galium, post-emergence, 240 h, Postemergence
Procedure, shortened: as §1

Kochia (Kochia scoparia) [8] = assay: Test A postemergence; settings: Bassia scoparia, post-emergence, 240 h, Postemergence
Procedure, shortened: as §1

[9] = tested on: barnyardgrass (Echinochloa crus-galli); assay: Test A postemergence; settings: Echinochloa crus-galli, post-emergence, 240 h, Postemergence
Procedure, shortened: as §1

[10] = tested on: blackgrass (Alopecurus myosuroides); assay: Test A postemergence; settings: Alopecurus myosuroides, post-emergence, 240 h, Postemergence
Procedure, shortened: as §1

corn (Zea mays) = assay: Test A postemergence; settings: Zea mays, post-emergence, 240 h, Postemergence
Procedure, shortened: as §1

[11] = tested on: giant foxtail (Setaria faberii); assay: Test A postemergence; settings: Setaria faberi, post-emergence, 240 h, Postemergence
Procedure, shortened: as §1

[12] = tested on: pigweed (Amaranthus retroflexus); assay: Test A postemergence; settings: Amaranthus retroflexus, post-emergence, 240 h, Postemergence
Procedure, shortened: as §1

[13] = tested on: ragweed (common ragweed, Ambrosia elatior); assay: Test A postemergence; settings: Ambrosia artemisiifolia, post-emergence, 240 h, Postemergence
Procedure, shortened: as §1

[14] = tested on: ryegrass, Italian (Italian ryegrass, Lolium multiflorum); assay: Test A postemergence; settings: Lolium multiflorum, post-emergence, 240 h, Postemergence
Procedure, shortened: as §1

[15] = tested on: wheat (Triticum aestivum); assay: Test A postemergence; settings: Triticum aestivum, post-emergence, 240 h, Postemergence
Procedure, shortened: as §1

[16] = tested on: barnyardgrass (Echinochloa crus-galli); assay: Test B flooded paddy test; settings: Echinochloa crus-galli, 360 h, Flood, 250 g ai/ha; visually evaluated after 13 to 15 d; read-out: Plant response rating, Barnyardgrass (0 to 100 scale where 0 is no effect and 100 is complete control)
Procedure, shortened: (§2)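 Greenhouse paddy pots with 2-leaf stage plants received compound by direct addition to floodwater 3 cm deep, kept at that level. Scored visually at 13–15 d versus controls (0 no effect; 100 complete control).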

[17] = tested on: ducksalad (Heteranthera limosa); assay: Test B flooded paddy test; settings: Heteranthera limosa, 360 h, Flood, 250 g ai/ha; visually evaluated after 13 to 15 d; read-out: Plant response rating, Ducksalad (0 to 100 scale where 0 is no effect and 100 is complete control)
Procedure, shortened: as §2

rice (Oryra sativa) = assay: Test B flooded paddy test; settings: Oryza sativa, 360 h, Flood, 250 g ai/ha; visually evaluated after 13 to 15 d; read-out: Plant response rating, Rice (0 to 100 scale where 0 is no effect and 100 is complete control)
Procedure, shortened: as §2

[18] = tested on: sedge, umbrella (small-flower umbrella sedge, Cyperus difformis); assay: Test B flooded paddy test; settings: Cyperus difformis, 360 h, Flood, 250 g ai/ha; visually evaluated after 13 to 15 d; read-out: Plant response rating, Sedge, Umbrella (0 to 100 scale where 0 is no effect and 100 is complete control)
Procedure, shortened: as §2

Q: What does the source list for `CN1C[C@H](c2ccc(C(F)(F)F)cc2)[C@@H](C(=O)Nc2cccnc2F)C1=O` [Compound 1396]?
A: pest or weed control at 31 g/ha (Kochia (Kochia scoparia) [1]; 31 g ai/ha, 0 to 100 scale where 0 is no effect and 100 is complete control, read-out: Kochia plant response rating): 30%; pest or weed control at 125 g/ha (Kochia (Kochia scoparia) [1]; 125 g ai/ha, 0 to 100 scale (0 no effect, 100 complete control), read-out: Plant response rating, Kochia): 70%; pest or weed control at 31 g/ha ([2]; 31 g ai/ha, 0 to 100 scale where 0 is no effect and 100 is complete control, read-out: Barnyardgrass plant response rating): 90%; pest or weed control at 125 g/ha ([2]; 125 g ai/ha, 0 to 100 scale (0 no effect, 100 complete control), read-out: Plant response rating, Barnyardgrass): 90%; pest or weed control at 31 g/ha ([3]; 31 g ai/ha, 0 to 100 scale where 0 is no effect and 100 is complete control, read-out: Foxtail, Giant plant response rating): 90%; pest or weed control at 125 g/ha ([3]; 125 g ai/ha, 0 to 100 scale (0 no effect, 100 complete control), read-out: Plant response rating, Foxtail, Giant): 90%; pest or weed control at 31 g/ha ([4]; 31 g ai/ha, 0 to 100 scale where 0 is no effect and 100 is complete control, read-out: Pigweed plant response rating): 70%; pest or weed control at 125 g/ha ([4]; 125 g ai/ha, 0 to 100 scale (0 no effect, 100 complete control), read-out: Plant response rating, Pigweed): 90%; pest or weed control at 31 g/ha ([5]; 31 g ai/ha, 0 to 100 scale where 0 is no effect and 100 is complete control, read-out: Ragweed plant response rating): 30%; pest or weed control at 125 g/ha ([5]; 125 g ai/ha, 0 to 100 scale (0 no effect, 100 complete control), read-out: Plant response rating, Ragweed): 60%; pest or weed control at 31 g/ha ([6]; 31 g ai/ha, 0 to 100 scale where 0 is no effect and 100 is complete control, read-out: Ryegrass, Italian plant response rating): 0%; pest or weed control at 125 g/ha ([6]; 125 g ai/ha, 0 to 100 scale (0 no effect, 100 complete control), read-out: Plant response rating, Ryegrass, Italian): 40%; pest or weed control at 31 g/ha ([7]; 31 g ai/ha, 0 is no effect, 100 is complete control, read-out: Galium plant response rating (0 to 100 scale)): 60%; pest or weed control at 125 g/ha ([7]; 125 g ai/ha, visual injury after approx. 10 d, 0 to 100 scale, 0 no effect, 100 complete control, read-out: Plant response rating, Galium): 70%; pest or weed control at 31 g/ha (Kochia (Kochia scoparia) [8]; 31 g ai/ha, 0 is no effect, 100 is complete control, read-out: Kochia plant response rating (0 to 100 scale)): 60%; pest or weed control at 125 g/ha (Kochia (Kochia scoparia) [8]; 125 g ai/ha, visual injury after approx. 10 d, 0 to 100 scale, 0 no effect, 100 complete control, read-out: Plant response rating, Kochia): 70%; pest or weed control at 31 g/ha ([9]; 31 g ai/ha, 0 is no effect, 100 is complete control, read-out: Barnyardgrass plant response rating (0 to 100 scale)): 70%; pest or weed control at 125 g/ha ([9]; 125 g ai/ha, visual injury after approx. 10 d, 0 to 100 scale, 0 no effect, 100 complete control, read-out: Plant response rating, Barnyardgrass): 80%; pest or weed control at 31 g/ha ([10]; 31 g ai/ha, 0 is no effect, 100 is complete control, read-out: Blackgrass plant response rating (0 to 100 scale)): 0%; pest or weed control at 125 g/ha ([10]; 125 g ai/ha, visual injury after approx. 10 d, 0 to 100 scale, 0 no effect, 100 complete control, read-out: Plant response rating, Blackgrass): 50%; plant injury at 31 g/ha (corn (Zea mays); 31 g ai/ha, 0 is no effect, 100 is complete control, read-out: Corn plant response rating (0 to 100 scale)): 20%; Corn plant response rating (crop injury, 0 = no effect, 100 = complete kill) at 125 g/ha (corn (Zea mays); 125 g ai/ha, visual injury after approx. 10 d, 0 to 100 scale, 0 no effect, 100 complete control): 60%; pest or weed control at 31 g/ha ([11]; 31 g ai/ha, 0 is no effect, 100 is complete control, read-out: Foxtail, Giant plant response rating (0 to 100 scale)): 80%; pest or weed control at 125 g/ha ([11]; 125 g ai/ha, visual injury after approx. 10 d, 0 to 100 scale, 0 no effect, 100 complete control, read-out: Plant response rating, Foxtail, Giant): 80%; pest or weed control at 31 g/ha ([12]; 31 g ai/ha, 0 is no effect, 100 is complete control, read-out: Pigweed plant response rating (0 to 100 scale)): 30%; pest or weed control at 125 g/ha ([12]; 125 g ai/ha, visual injury after approx. 10 d, 0 to 100 scale, 0 no effect, 100 complete control, read-out: Plant response rating, Pigweed): 70%; pest or weed control at 31 g/ha ([13]; 31 g ai/ha, 0 is no effect, 100 is complete control, read-out: Ragweed plant response rating (0 to 100 scale)): 0%; pest or weed control at 125 g/ha ([13]; 125 g ai/ha, visual injury after approx. 10 d, 0 to 100 scale, 0 no effect, 100 complete control, read-out: Plant response rating, Ragweed): 50%; pest or weed control at 31 g/ha ([14]; 31 g ai/ha, 0 is no effect, 100 is complete control, read-out: Ryegrass, Italian plant response rating (0 to 100 scale)): 20%; pest or weed control at 125 g/ha ([14]; 125 g ai/ha, visual injury after approx. 10 d, 0 to 100 scale, 0 no effect, 100 complete control, read-out: Plant response rating, Ryegrass, Italian): 40%; plant injury at 31 g/ha ([15]; 31 g ai/ha, 0 is no effect, 100 is complete control, read-out: Wheat plant response rating (0 to 100 scale)): 0%; plant injury at 125 g/ha ([15]; 125 g ai/ha, visual injury after approx. 10 d, 0 to 100 scale, 0 no effect, 100 complete control, read-out: Plant response rating, Wheat): 70%; pest or weed control at 250 g/ha [16]: 80%; pest or weed control at 250 g/ha [17]: 100%; pest or weed control at 250 g/ha (rice (Oryra sativa)): 25%; pest or weed control at 250 g/ha [18]: 0%
